Laboratory results as given in publication PMC3156232, “Rapid Probing of Biological Surfaces with a Sparse-Matrix Peptide Library” (PLoS ONE, 2011).
“Also recorded” adds a separate entry of the source.

What was measured:
[1] = tested on: S. aureus; test: Fluorescence microscopy screening of FAM-labeled peptides against immobilized cells; type: binding, Staphylococcus aureus; details: FAM-labeled peptide 25 µM, 10 minutes, washed, result in words
Method: (§1) Peptide samples were prepared at a concentration of 25 µM for screening. For bacterial and yeast binding assays, cells were grown overnight, washed, and immobilized in a polylysine-coated 96-well plate, except in the case of S. mutans biofilms, where 10^5 cells were inoculated into 400 µl of Todd Hewitt broth in 48-well plates and biofilms were grown anaerobically for 24 hr. FAM-labeled peptides were applied to immobilized cell, yeast, and bacterial cultures, incubated for 10 minutes and washed extensively to remove unbound peptide. Samples were visualized by fluorescence microscopy (Nikon E400). For each peptide, both brightfield and fluorescence images were collected with the manufacturer-supplied software (SPOT, Diagnostic Instruments, Sterling Heights, MI). Post-collection, the locations of cells and background regions were determined using the brightfield images; those regions were then selected in the fluorescence images for quantitation of pixel values for determination of relative fluorescence intensities using The GIMP (http://www.gimp.org), [33]. Due to the variation in the levels of binding of the peptide to the well, these values are represented as bacterial fluorescence/background fluorescence, in order to remove the effects of precipitation or nonspecific binding from the final measurement.

[2] = tested on: wild type M. xanthus; test: as above; type: binding, Myxococcus xanthus; details: FAM-labeled peptide 25 µM, 10 minutes, result in words
Method: as §1

[3] = Tooth section binding by confocal laser scanning microscopy; details: sectioned human teeth, FAM-labeled peptide, CLSM; result in words
Source text: For tooth binding assays, FAM-labeled pilot matrix peptides were collected into four pools of 9 peptides each. Peptides were screened by exposing pools to sections taken from a collection of anonymous human teeth (extracted during normal clinical practice), followed by visualization of the samples by Confocal Laser Scanning Microscopy (CLSM).

[4] = tested on: wild type S. mutans (UA140); test: Fluorescence microscopy binding to S. mutans; design: species or system Streptococcus mutans; details: FAM-labeled peptide, result in words
Method: as §1

[5] = tested on: S. mutans gtfB mutant; test: Fluorescence microscopy binding to surface mutant; design: species or system Streptococcus mutans; details: FAM-labeled peptide, result in words
Method: as §1

Sequence	Binding to immobilized S. aureus cells (fluorescence staining) [1]	Binding to wild-type M. xanthus cells (fluorescence staining) [2]	Binding to tooth dentin [3]	Binding to tooth enamel and enamel-proximal region of the dentino-enamel junction [3]	Binding to wild type S. mutans [4]	Binding to S. mutans gtfB mutant unable to synthesize extracellular glucan [5]
AMKDAMERM [Pilot Library E4]	preferentially binds	preferentially binds	no obvious binding	clear binding	–	–
AMQDAMNEM [Pilot Library E6]	–	–	bound selectively to dentin	–	–	–
IWHSWISTW [sma24]	–	–	–	–	good binding activity and specificity; also recorded: strong binding	reduced binding
